Counter-ions that a name gives are not always drawn.
Test system: Erwinia amylovora strain 385 (Ea385)
Experiment: Fire blight test on inoculated apple blossoms (Gala)
Format: in vivo
Settings: 0.06% spray solution, 1 hour after inoculation, reduction of infestation after 6 days
Method: Finely pulverized CaO was coated with stearic acid (5% by weight of stearic acid relative to CaO) and was tested, as dust on apple blossoms, against fire blight. The standardized tests were carried out at an institute certified therefor (bio-ferm Research GmbH, DE). Apple blossoms of the Gala type were placed, with the pedicel, in a 10% saccharose solution and were incubated in a humid chamber. Inoculation/pathogen: Erwinia amylovora strain 385 (Ea385), as a bacterial suspension of fresh cultures with 10 million cells per milliliter, was sprayed onto the blossoms. Infested blossoms were treated, 1 hour after inoculation, with the coated CaO as dust (test series) or were subjected to the standard treatment (streptomycin sulfate 0.06% as spray solution; control and benchmark). Evaluation: The blossoms were investigated after 6 days, and analyzed in terms of the pathogen-typical features of an infection (slime spots). 39% of the blossoms without treatment were infested with fire blight. The reduction of the infestation by means of the corresponding treatment was evaluated, in terms of the efficacy of the treatment.

## [H]/N=C(/N)N[C@H]1[C@H](O)[C@@H](O)[C@H](O[C@@H]2O[C@@H](C)[C@](O)(C=O)[C@H]2O[C@@H]2O[C@@H](CO)[C@H](O)[C@@H](O)[C@@H]2NC)[C@@H](N/C(N)=N\[H])[C@@H]1O [Streptomycin sulfate, streptomycin sulfate]
  Efficacy of the treatment: 68%
